Test system: 885512-296-R-J2-PDC complex spheroid viability
Assay: Anticancer human tumor 885512-296-R-J2-PDC patient-derived breast carcinoma cell line growth inhibition
Settings: for IC50: curve of first compound; for viability, T/C: stronger effect = lower value; active = viability on the fitted dose curve at most 10% of control; inactive = the rest
Summary of the method: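 Multicellular complex spheroids of tumor cells with human endothelial cells (HUVEC) and mesenchymal stem cells; the LSD1 inhibitor iadademstat was combined with standard-of-care or investigational agents. Top concentration at or near clinical Cmax, half-log dilutions; final DMSO ≤0.25%.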

[1] = second compound 0.1 µM, first compound 0.000316 µM
[2] = second compound 0.1 µM, first compound 0.001 µM
[3] = second compound 0.1 µM, first compound 0.00316 µM
[4] = second compound 0.1 µM, first compound 0.01 µM
[5] = second compound 0.1 µM, first compound 0.0316 µM
[6] = second compound 0.1 µM, first compound 0.1 µM
[7] = second compound 0.316 µM, first compound 0.000316 µM
[8] = second compound 0.316 µM, first compound 0.001 µM
[9] = second compound 0.316 µM, first compound 0.00316 µM
[10] = second compound 0.316 µM, first compound 0.01 µM
[11] = second compound 0.316 µM, first compound 0.0316 µM
[12] = second compound 0.316 µM, first compound 0.1 µM
[13] = second compound 1 µM, first compound 0.000316 µM
[14] = second compound 1 µM, first compound 0.001 µM
[15] = second compound 1 µM, first compound 0.00316 µM
[16] = second compound 1 µM, first compound 0.01 µM
[17] = second compound 1 µM, first compound 0.0316 µM
[18] = second compound 1 µM, first compound 0.1 µM
[19] = second compound 3.16 µM, first compound 0.000316 µM
[20] = second compound 3.16 µM, first compound 0.001 µM
[21] = second compound 3.16 µM, first compound 0.00316 µM
[22] = second compound 3.16 µM, first compound 0.01 µM
[23] = second compound 3.16 µM, first compound 0.0316 µM
[24] = second compound 3.16 µM, first compound 0.1 µM
[25] = second compound 10 µM, first compound 0.000316 µM
[26] = second compound 10 µM, first compound 0.001 µM
[27] = second compound 10 µM, first compound 0.00316 µM
[28] = second compound 10 µM, first compound 0.01 µM
[29] = second compound 10 µM, first compound 0.0316 µM
[30] = second compound 10 µM, first compound 0.1 µM
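Also: spheroids exposed to agents for 7 days before viability read.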

CC(C)CC(NC(=O)C(Cc1ccccc1)NC(=O)c1cnccn1)B(O)O (stereo not given) + NC1CC1c1ccc(-c2cccc(O)c2)cc1
active: viability, T/C [2] 1.21% | viability, T/C [3] 7.48% | viability, T/C [4] 0.02% | viability, T/C [5] 0.02% | viability, T/C [6] 0.09% | viability, T/C [8] 0.69% | viability, T/C [9] 0.05% | viability, T/C [10] 0.01% | viability, T/C [11] 0.01% | viability, T/C [12] 0.08% | viability, T/C [14] 0.65% | viability, T/C [15] 0.02% | viability, T/C [16] 0.01% | viability, T/C [17] 0.01% | viability, T/C [18] 0.09% | viability, T/C [20] 0.58% | viability, T/C [21] 0.16% | viability, T/C [22] 0.01% | viability, T/C [23] 0.02% | viability, T/C [24] 0.1% | viability, T/C [26] 0.27% | viability, T/C [27] 0.11% | viability, T/C [28] 0.12% | viability, T/C [29] 0.14% | viability, T/C [30] 0.14%
< 0.316 nM: IC50 (second compound 0.1 µM) | IC50 (second compound 0.316 µM) | IC50 (second compound 1 µM) | IC50 (second compound 3.16 µM) | IC50 (second compound 10 µM)
inactive: viability, T/C [1] 18.7% | viability, T/C [7] 19% | viability, T/C [13] 18.5% | viability, T/C [19] 15.5% | viability, T/C [25] 11.2%

CC(C)CC(NC(=O)CNC(=O)c1cc(Cl)ccc1Cl)B1OC(=O)CC(CC(=O)O)(C(=O)O)O1 (stereo not given) + NC1CC1c1ccc(-c2cccc(O)c2)cc1
4.92 nM: IC50 (second compound 0.1 µM)
5.16 nM: IC50 (second compound 0.316 µM)
active: viability, T/C [4] 10.1% | viability, T/C [5] 1.77% | viability, T/C [6] 0.48% | viability, T/C [11] 2.04% | viability, T/C [12] 0.45% | viability, T/C [17] 1.61% | viability, T/C [18] 0.42% | viability, T/C [23] 1.75% | viability, T/C [24] 0.31% | viability, T/C [28] 5.61% | viability, T/C [29] 1.05% | viability, T/C [30] 0.22%
5.08 nM: IC50 (second compound 1 µM)
inactive: viability, T/C [1] 125% | viability, T/C [2] 126% | viability, T/C [3] 75% | viability, T/C [7] 130% | viability, T/C [8] 113% | viability, T/C [9] 79.6% | viability, T/C [10] 10.3% | viability, T/C [13] 132% | viability, T/C [14] 116% | viability, T/C [15] 78.6% | viability, T/C [16] 9.38% | viability, T/C [19] 121% | viability, T/C [20] 103% | viability, T/C [21] 65.7% | viability, T/C [22] 8.61% | viability, T/C [25] 82.8% | viability, T/C [26] 87.5% | viability, T/C [27] 52%
4.23 nM: IC50 (second compound 3.16 µM)
3.35 nM: IC50 (second compound 10 µM)

Source: PubChem BioAssay AID1918946 (Molecular Pharmacology Branch, DTP, NCI, 2023)
